± gives the expanded uncertainty stated by the source.
Conditions: Liquid, Vibrating tube method

## C=CCCCC [hex-1-ene]
283.57 K, 1000 kPa
  mass density: 683.2 ± 2 kg/m3
283.57 K, 3000 kPa
  mass density: 685.2 ± 2 kg/m3
283.57 K, 5000 kPa
  mass density: 687.2 ± 2 kg/m3
283.57 K, 10000 kPa
  mass density: 691.9 ± 2 kg/m3
283.57 K, 15000 kPa
  mass density: 696.4 ± 2 kg/m3
283.57 K, 20000 kPa
  mass density: 700.6 ± 2 kg/m3
283.57 K, 25000 kPa
  mass density: 704.7 ± 2.1 kg/m3
283.57 K, 30000 kPa
  mass density: 708.5 ± 2.1 kg/m3
283.57 K, 35000 kPa
  mass density: 712.4 ± 2.1 kg/m3
283.57 K, 45000 kPa
  mass density: 719.4 ± 2.1 kg/m3
283.58 K, 500 kPa
  mass density: 682.3 ± 2 kg/m3
283.58 K, 40000 kPa
  mass density: 714.7 ± 2.1 kg/m3
283.58 K, 50000 kPa
  mass density: 722.4 ± 2.1 kg/m3
283.58 K, 55000 kPa
  mass density: 725.5 ± 2.1 kg/m3
283.58 K, 60000 kPa
  mass density: 728.6 ± 2.2 kg/m3
283.58 K, 70000 kPa
  mass density: 734.4 ± 2.2 kg/m3
283.58 K, 80000 kPa
  mass density: 739.9 ± 2.2 kg/m3
283.59 K, 100 kPa
  mass density: 682.2 ± 2 kg/m3
283.59 K, 90000 kPa
  mass density: 745.2 ± 2.3 kg/m3
283.59 K, 100000 kPa
  mass density: 750.1 ± 2.3 kg/m3
293.5 K, 1000 kPa
  mass density: 674.1 ± 2 kg/m3
293.51 K, 100 kPa
  mass density: 673.1 ± 2 kg/m3
293.51 K, 500 kPa
  mass density: 673.5 ± 2 kg/m3
293.51 K, 3000 kPa
  mass density: 676.3 ± 2 kg/m3
293.51 K, 5000 kPa
  mass density: 678.4 ± 2 kg/m3
293.51 K, 10000 kPa
  mass density: 683.5 ± 2 kg/m3
293.51 K, 20000 kPa
  mass density: 692.8 ± 2 kg/m3
293.51 K, 25000 kPa
  mass density: 697 ± 2.1 kg/m3
293.51 K, 30000 kPa
  mass density: 701.1 ± 2.1 kg/m3
293.51 K, 35000 kPa
  mass density: 704.9 ± 2.1 kg/m3
293.51 K, 55000 kPa
  mass density: 718.9 ± 2.1 kg/m3
293.51 K, 60000 kPa
  mass density: 722.1 ± 2.2 kg/m3
293.51 K, 70000 kPa
  mass density: 728.2 ± 2.2 kg/m3
293.51 K, 80000 kPa
  mass density: 733.8 ± 2.2 kg/m3
293.51 K, 90000 kPa
  mass density: 739.3 ± 2.3 kg/m3
293.51 K, 100000 kPa
  mass density: 744.4 ± 2.3 kg/m3
293.52 K, 15000 kPa
  mass density: 688.3 ± 2 kg/m3
293.52 K, 40000 kPa
  mass density: 708.6 ± 2.1 kg/m3
293.52 K, 45000 kPa
  mass density: 712.5 ± 2.1 kg/m3
293.52 K, 50000 kPa
  mass density: 715.6 ± 2.1 kg/m3
303.4 K, 500 kPa
  mass density: 664.1 ± 2 kg/m3
303.4 K, 1000 kPa
  mass density: 664.6 ± 2 kg/m3
303.41 K, 100 kPa
  mass density: 663.5 ± 2 kg/m3
303.41 K, 3000 kPa
  mass density: 667 ± 2 kg/m3
303.41 K, 5000 kPa
  mass density: 669.3 ± 2 kg/m3
303.41 K, 10000 kPa
  mass density: 674.8 ± 2 kg/m3
303.41 K, 15000 kPa
  mass density: 679.9 ± 2 kg/m3
303.41 K, 20000 kPa
  mass density: 684.7 ± 2.1 kg/m3
303.41 K, 25000 kPa
  mass density: 689.2 ± 2.1 kg/m3
303.42 K, 30000 kPa
  mass density: 693.5 ± 2.1 kg/m3
303.42 K, 35000 kPa
  mass density: 698.2 ± 2.1 kg/m3
303.42 K, 40000 kPa
  mass density: 701.5 ± 2.1 kg/m3
303.42 K, 45000 kPa
  mass density: 705.8 ± 2.1 kg/m3
303.42 K, 50000 kPa
  mass density: 708.8 ± 2.1 kg/m3
303.42 K, 55000 kPa
  mass density: 712.8 ± 2.1 kg/m3
303.42 K, 60000 kPa
  mass density: 715.5 ± 2.2 kg/m3
303.42 K, 70000 kPa
  mass density: 721.8 ± 2.2 kg/m3
303.42 K, 80000 kPa
  mass density: 727.7 ± 2.2 kg/m3
303.42 K, 90000 kPa
  mass density: 733.2 ± 2.3 kg/m3
303.42 K, 100000 kPa
  mass density: 738.5 ± 2.3 kg/m3
313.34 K, 100 kPa
  mass density: 654.1 ± 2 kg/m3
313.34 K, 20000 kPa
  mass density: 676.6 ± 2.1 kg/m3
313.35 K, 500 kPa
  mass density: 654.2 ± 2 kg/m3
313.35 K, 1000 kPa
  mass density: 655.3 ± 2 kg/m3
313.35 K, 3000 kPa
  mass density: 657.9 ± 2 kg/m3
313.35 K, 5000 kPa
  mass density: 660.3 ± 2 kg/m3
313.35 K, 10000 kPa
  mass density: 666.1 ± 2 kg/m3
313.35 K, 15000 kPa
  mass density: 671.6 ± 2 kg/m3
313.35 K, 25000 kPa
  mass density: 681.4 ± 2.1 kg/m3
313.35 K, 30000 kPa
  mass density: 685.9 ± 2.1 kg/m3
313.35 K, 35000 kPa
  mass density: 690.2 ± 2.1 kg/m3
313.35 K, 40000 kPa
  mass density: 694.3 ± 2.1 kg/m3
313.35 K, 45000 kPa
  mass density: 698.3 ± 2.1 kg/m3
313.35 K, 50000 kPa
  mass density: 701.9 ± 2.1 kg/m3
313.35 K, 55000 kPa
  mass density: 705.7 ± 2.2 kg/m3
313.35 K, 60000 kPa
  mass density: 709 ± 2.2 kg/m3
313.35 K, 80000 kPa
  mass density: 721.9 ± 2.2 kg/m3
313.35 K, 90000 kPa
  mass density: 727.6 ± 2.3 kg/m3
313.35 K, 100000 kPa
  mass density: 733.2 ± 2.3 kg/m3
313.36 K, 70000 kPa
  mass density: 715.9 ± 2.2 kg/m3
323.18 K, 100 kPa
  mass density: 644.5 ± 2 kg/m3
323.18 K, 60000 kPa
  mass density: 702.5 ± 2.2 kg/m3
323.19 K, 500 kPa
  mass density: 644.9 ± 2 kg/m3
323.19 K, 1000 kPa
  mass density: 645.8 ± 2 kg/m3
323.19 K, 3000 kPa
  mass density: 648.6 ± 2 kg/m3
323.19 K, 5000 kPa
  mass density: 651.3 ± 2 kg/m3
323.19 K, 10000 kPa
  mass density: 657.6 ± 2 kg/m3
323.19 K, 50000 kPa
  mass density: 695.2 ± 2.1 kg/m3

Source: the NIST ThermoML archive (doi:10.1021/acs.jced.8b00229)
